Assay results from patent publication US4719046A, “Crysene derivatives” (Burroughs Wellcome Co., priority 1984, dated 1988).
Structures can show the parent of a compound that is named as a salt.

Columns and labels:
[1] = test system: lymphocytic leukemia L1210; assay: Lymphocytic Leukemia L1210 Test; assay type: in vivo, mouse (CD2-F1); conditions: median survival T/C; 120 mg/kg IP days 1, 5, 9; active if ≥125%
Source text: (§1) Methods for evaluating the antitumor activity of these compounds are essentially those used in the Tumor Panel by the Developmental Therapeutics Program, Division of Cancer Treatment, National Cancer Institute, A. Goldin, et al., Methods in Cancer Research, Vol. XVI, p. 165, Academic Press (1979). Some modifications, in dose level and schedule have been made to increase the testing efficiency.
(§2) CD2-F1 mice, of the same sex, weighing 20±3 g, are used for this test. Control and test animals are injected intraperitoneally with a suspension of ~10^6 viable P388/0 tumor cells on day 0. In each test, several dose levels which bracket the LD20 of the compound are evaluated; each dose level group contains six animals. The test compounds are prepared either in physiologic saline containing 0.05% Tween 80 or distilled water containing 5% dextrose and are administered intraperitoneally on days 1, 5, and 9 relative to tumor implant. Doses are on a mg/kg basis according to individual animals' body weights. The day of death for each animal is recorded, the median identified for each group and the ratios of median survival time for treated (T)/control (C) groups are calculated. The criterion for activity is T/C×100≥120%.
The protocol for this test is identical to that for P388/0, except that the number of L1210 cells implanted on day 0 is ~10^5 /mouse. […]

melanotic melanoma B16 = assay: Melanotic Melanoma B16 test; assay type: in vivo, mouse (B6C3-F1); conditions: median survival T/C; IP days 1, 5, 9; active if >125%; dose mg/kg: 1C 100, 6G 50, 3 70, 2 75, 18B 70
Source text: as §1, §2
B6C3-F1 mice of the same sex, weighing 20±3 g, are used for this test. A suspension of B16 cells is prepared from a non-necrotic portion of solid tumor tissue obtained from a passage mouse. One gram of tumor is homogenized in 9 mL ice-cold Earle's salts solution and filtered through 1000 mesh screen to remove debris. 0.5 mL of the resulting brei is injected intraperitoneally into each animal. Dosing is carried out as in the P388/0 and L1210 tests. Days of death are recorded for a 60 day period and T/C ratio calculated as in the P388/0 and L1210 tests. The criterion for activity is T/C×100>125%.

Lewis lung carcinoma = assay: Lewis Lung Carcinoma Test; assay type: in vivo, mouse (BD-F1; tumor from C57B1/6); conditions: median survival T/C; 105 mg/kg days 1, 5, 9; active if ≥140%
Source text: as §1
CD2-F1 mice, of the same sex, weighing 20±3 g, are used for this test. Control and test animals are injected intraperitoneally with a suspension of ~10^6 viable P388/0 tumor cells on day 0. In each test, several dose levels which bracket the LD20 of the compound are evaluated; each dose level group contains six animals. […] The day of death for each animal is recorded, the median identified for each group and the ratios of median survival time for treated (T)/control (C) groups are calculated. […]
This tumor arose spontaneously in the lung of a C57B1/6 mouse and is maintained by subcutaneous passage in that strain. […] In each test, several dose levels which bracket the LD20 for the compound are evaluated. […] The day of death for each animal is recorded, the median identified for each group and the ratios of median survival time for treated (T)/control (C) groups are calculated. […]

colon 38 carcinoma = assay: Colon 38 Carcinoma Test; assay type: in vivo, mouse (C57B1/6); conditions: tumor weight T/C at day 20; 120 mg/kg IP days 1, 5, 9; active if ≤42%
Source text: as §1
This chemically-induced tumor arose in a C57B1/6 mouse and is maintained as a solid tumor in that mouse strain. The subcutaneously growing solid tumor is aseptically excised from passage mice and placed in sterile saline. The tumor is trimmed free of visible necrotic and connective tissue, then divided into 2-3 mm cubes. A cube is implanted subcutaneously in the ventral thoracie region with a sterile trochar on day 0. In each test several dose levels which bracket the LD20 for the compound are evaluated. Ten animals are included in each dose level group and thirty animals in the untreated control group. The test compounds are prepared either in physiologic saline containing 0.05% Tween 80 or distilled water containing 5% dextrose and are administered intraperitoneally on days 1, 5 and 9 after tumor implant. […] At day 20, the animals are sacrificed and the longest (L) and shortest (W) dimensions of each tumor measured with vernier calipers. Tumor weight is calculated from the formula (L× (W)^2 /2). […]

M5076 sarcoma = assay: M5076 Sarcoma Test; assay type: in vivo, mouse (B6C3-F1); conditions: median survival T/C; 105 mg/kg IP days 1, 5, 9; active if ≥125%
Source text: as §1, §2
This sarcoma arose as a solid tumor in the ovary of a C57B1/6 mouse and was subsequently converted to the ascitic form for intraperitoneal use. […]

CD2-F1 mice = assay: LD20 in the P388/0 test mice; assay type: in vivo, mouse (CD2-F1); conditions: IP days 1, 5, 9, doses on a mg/kg basis
Procedure: as §2
(§3) ^A Values in parentheses are the highest nontoxic dose where the
(§4) LD20 was not determined.

[2] = LD20 in the P388/0 test mice; assay type: in vivo, mouse (CD2-F1); conditions: mouse, in vivo, IP days 1, 5, 9, doses on a mg/kg basis, read-out: LD20 column, value in parentheses: highest nontoxic dose where the LD20 was not determined
Procedure: as §2, §3, §4

[3] = test system: lymphocytic leukemia P388/0; assay: Lymphocytic Leukemia P388/0 Test; assay type: in vivo, mouse (CD2-F1); conditions: median survival T/C; IP days 1, 5, 9; active if ≥120%; optimal dose mg/kg: 1B 121, 1C 115, 2 100, 3 100, 6G 65, 18B 88, 19H 110, 6H 60, 7 110, 9 300, 10B 1013, 11C 150, 12G 90, 5F 225, 13D 303, 14 196, 15B 250, 16 1012, 4B 180
Source text: as §1, §2

[4] = test system: Streptococcus pyogenes (CN10); assay: Antibacterial test, Streptococcus pyogenes (agar dilution); assay type: cell-based
Source text: (§5) Anitbacterial testing against […] (S3264) and Streptococcus pyogenes (CN10) was done with slight modifications using standard agar dilution assays as outlined in Manual of Clinical Microbiology Second Ed., E. H. Lennette. E. H. Spaulding and J. P. Traunt Eds., American Society for Microbiology, Washington, DC, 1974

Mycoplasma smegmatis = assay: Antibacterial test, Mycoplasma smegmatis (agar dilution); assay type: cell-based
Source text: as §5

Herpes simplex 1/vero = Herpes simplex 1/vero plaque inhibition screen; assay type: cell-based
Source text: Antiviral testing against Herpes simplex 1/vero was done using plaque inhibition methods as outlined in P. Collins and D. J. Bauer, Proc. N.Y. Acad. Sci. 284, 49 (1977) and by plaque reduction methods as outlined in P. Collins and D. J. Bauer, J. Antimicrobial Chemotherapy 3, Supplement A, 73(1977). The column headings labeled Score, Toxicity, and Zone of Inhibition refer to the plaque inhibition screen while the IC50 heading to the plaque reduction screen.

Structure (SMILES): CC(CO)(CO)NCc1cc2c3ccccc3ccc2c2ccccc12 [Example 1C, 2-((6-Chrysenylmethyl)amino)-2-methyl-1,3-propanediol methanesulfonate]
- T/C × 100% Excluding 30 day Survivors [1]: +252%
- T/C × 100% Excluding 60 day Survivors (melanotic melanoma B16): +146%
- T/C × 100% Excluding 60 day Survivors (Lewis lung carcinoma): +191%
- T/C × 100% (colon 38 carcinoma): 36%
- T/C × 100% (M5076 sarcoma): +168%
- LD20 (CD2-F1 mice): 105 mg/kg

Structure (SMILES): O[C@@H]1CCC[C@H](O)[C@H]1NCc1cc2c3ccccc3ccc2c2ccccc12 [Example 10B, (1α,2β,3α)-2-((6-Chrysenylmethyl)amino)-1,3-cyclohexanediol hydrochloride]
- MTD [2]: 675 mg/kg

Structure (SMILES): CS(=O)(=O)O.C[C@H](O)C(NCc1cc2c3ccccc3ccc2c2ccccc12)[C@@H](C)O (stereo partly drawn) [Example 13D, meso-3-((6-Chrysenylmethyl)amino)-2,4-pentanediol methanesulfonate]
- T/C × 100% (Excluding 30 Day Survivors) [3]: +200%
- LD20 (CD2-F1 mice): 675 mg/kg

Structure (SMILES): Cl.OCC(CO)(CO)NCc1cc2c3ccccc3ccc2c2ccccc12 [Example 2, 2-((6-chrysenylmethyl)amino)-2-hydroxymethyl-1,3-propanediol hydrochloride]
- T/C × 100% Excluding 60 day Survivors (melanotic melanoma B16): +144%
- MIC [4]: 10 µg/mL
- MIC (Mycoplasma smegmatis): 10 µg/mL
- LD20 (CD2-F1 mice): 100 mg/kg

Structure (SMILES): CC(=O)OCC(C)(COC(C)=O)NCc1cc2c3ccccc3ccc2c2ccccc12 [Example 16, 2-((6-Chrysenylmethyl)amino)-2-methyl-1,3-propanediol diacetate]
- MIC [4]: 10 µg/mL
- MIC (Mycoplasma smegmatis): 10 µg/mL
- LD20 (CD2-F1 mice): 675 mg/kg

Structure (SMILES): C[C@@H](O)[C@@](C)(CO)NCc1cc2c3ccccc3ccc2c2ccccc12.Cl (relative stereo) [Example 7, (+-)(2R*,3R*)-2-((6-Chrysenylmethyl)amino)-2-methyl-1,3-butanediol hydrochloride]
- LD20 (CD2-F1 mice): 100 mg/kg

Structure (SMILES): CC(CO)(CO)NCc1cc2c3ccccc3ccc2c2ccccc12.Cl [Example 1B, 2-((6-Chrysenylmethyl)amino)-2-methyl-1,3-propanediol hydrochloride]
- Zone of Inhibition (Herpes simplex 1/vero): 43
- MIC [4]: ≤ 10 µg/mL
- MIC (Mycoplasma smegmatis): ≤ 10 µg/mL
- LD20 (CD2-F1 mice): 140 mg/kg

Structure (SMILES): CC(C)(CO)NCc1cc2c3ccccc3ccc2c2ccccc12.Cl [Example 18B, 2-((6-Chrysenylmethyl)amino)-2-methylpropanol hydrochloride]
- T/C × 100% Excluding 60 day Survivors (melanotic melanoma B16): +125%
- MIC [4]: ≤ 3 µg/mL
- MIC (Mycoplasma smegmatis): 10 µg/mL
- LD20 (CD2-F1 mice): 80 mg/kg

Structure (SMILES): CS(=O)(=O)O.C[C@H](O)[C@@](C)(CO)NCc1cc2c3ccccc3ccc2c2ccccc12 (relative stereo) [Example 6H, (+-)(2R*,3S*)-2-((6-Chrysenylmethyl)amino)-2-methyl-1,3-butanediol methanesulfonate]
- LD20 (CD2-F1 mice): 60 mg/kg

Structure (SMILES): CC(C)C(CO)(CO)NCc1cc2c3ccccc3ccc2c2ccccc12 [Example 11C, 2-((6-Chrysenylmethyl)amino)-2-isopropyl-1,3-propanediol hydrochloride 1/3 H2 O]
- LD20 (CD2-F1 mice): 150 mg/kg

Structure (SMILES): CCc1cc2c3ccccc3c(CNC(C)(CO)CO)cc2c2ccccc12 [Example 15B, 2-(((12-Ethyl-6-chrysenyl)methyl)amino)-2-methyl-1,3-propanediol methanesulfonate]
- LD20 (CD2-F1 mice): 150 mg/kg

Structure (SMILES): C[C@@H](O)C(C)(NCc1cc2c3ccccc3ccc2c2ccccc12)[C@@H](C)O (relative stereo) [Example 5F]
- LD20 (CD2-F1 mice): 225 mg/kg

Structure (SMILES): CC(CO)(CO)NCc1cc2c3ccccc3c(Cl)cc2c2ccccc12 [Example 4B, 2-(((12-Chloro-6-chrysenyl)methyl)amino)-2-methyl-1,3-propanediol methanesulfonate.1/3H2 O]
- LD20 (CD2-F1 mice): 180 mg/kg

Structure (SMILES): CC(CO)(CCO)NCc1cc2c3ccccc3ccc2c2ccccc12 (centres unmarked) [Example 12G, 2-((6-chrysenylmethyl)amino)-2-methyl-1,4-butanediol hyrochloride.1/3EtOH]
- LD20 (CD2-F1 mice): 90 mg/kg

Structure (SMILES): COCC(C)(CO)NCc1cc2c3ccccc3ccc2c2ccccc12.Cl (centres unmarked) [Example 9D, 3-methoxy-2-((6-chrysenylmethyl)amino)-2-methyl-1-propanol hydrochloride]
- LD20 (CD2-F1 mice): 425 mg/kg

Structure (SMILES): OCC(CO)NCc1cc2c3ccccc3ccc2c2ccccc12 [Example 14, 2-((6-Chrysenylmethyl)amino)-1,3-propanediol methanesulfonate]
- LD20 (CD2-F1 mice): 160 mg/kg

Structure (SMILES): CCC(CO)(CO)NCc1cc2c3ccccc3ccc2c2ccccc12.Cl [Example 3, 2-((6-Chrysenylmethyl)amino)-2-ethyl-1,3-propanediol hydrochloride]
- T/C × 100% Excluding 60 day Survivors (melanotic melanoma B16): +144%
- MIC [4]: 10 µg/mL
- MIC (Mycoplasma smegmatis): > 100 µg/mL
- LD20 (CD2-F1 mice): 100 mg/kg

Structure (SMILES): CC(CO)(CO)NCc1ccc2ccc3c4ccccc4ccc3c2c1 [Example 19H, 2-((3-Chrysenylmethyl)amino)-2-methyl-1,3-propanediol methanesulfonate]
- LD20 (CD2-F1 mice): 150 mg/kg
